Experimental data reported in PubChem BioAssay AID1963870 (Molecular Pharmacology Branch, DTP, NCI, 2024).

Test system: 292921-168-R-J2-PDC KRAS tumor spheroid viability
Assay: Anticancer human tumor 292921-168-R-J2-PDC patient-derived pancreatic carcinoma cell line growth inhibition [KRAS2]
Settings: spheroids with HUVEC and MSC; for IC50: curve of first compound; for viability, T/C: stronger effect = lower value
Method in brief: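 Combination screen of spheroid viability in tumor-cell co-cultures with endothelial (HUVEC) and mesenchymal stem cell stroma. Each agent was tested in half-log dilutions, topping at clinical Cmax or at 10 microM without a known Cmax.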
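Note: drug exposure lasted seven days after spheroids formed for three days.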
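Throughout, for viability, T/C: percent of DMSO vehicle control viability which is 100%.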

COc1cc(Nc2ncc3c(n2)-c2ccc(Cl)cc2C(c2c(F)cccc2OC)=NC3)ccc1C(=O)O + COc1cc2nc(C)nc(NC(C)c3cc(N)cc(C(F)(F)F)c3)c2cc1OC1CCOC1
IC50 (second compound 0.1 µM): < 31.6 nM
IC50 (second compound 0.316 µM): < 31.6 nM
IC50 (second compound 1 µM): < 31.6 nM
IC50 (second compound 3.16 µM): < 31.6 nM
IC50 (second compound 10 µM): < 31.6 nM
viability, T/C (second compound 0.1 µM, first compound 0.0316 µM): 28.8%
viability, T/C (second compound 0.1 µM, first compound 0.1 µM): 23.7%
viability, T/C (second compound 0.1 µM, first compound 0.316 µM): 27.9%
viability, T/C (second compound 0.1 µM, first compound 1 µM): 25.8%
viability, T/C (second compound 0.1 µM, first compound 3.16 µM): 19.4%
viability, T/C (second compound 0.1 µM, first compound 10 µM): 16.9%
viability, T/C (second compound 0.316 µM, first compound 0.0316 µM): 26.3%
viability, T/C (second compound 0.316 µM, first compound 0.1 µM): 21.9%
viability, T/C (second compound 0.316 µM, first compound 0.316 µM): 27.4%
viability, T/C (second compound 0.316 µM, first compound 1 µM): 22.1%
viability, T/C (second compound 0.316 µM, first compound 3.16 µM): 22.3%
viability, T/C (second compound 0.316 µM, first compound 10 µM): 14.9%
viability, T/C (second compound 1 µM, first compound 0.0316 µM): 25%
viability, T/C (second compound 1 µM, first compound 0.1 µM): 24.5%
viability, T/C (second compound 1 µM, first compound 0.316 µM): 25.6%
viability, T/C (second compound 1 µM, first compound 1 µM): 23.4%
viability, T/C (second compound 1 µM, first compound 3.16 µM): 18.5%
viability, T/C (second compound 1 µM, first compound 10 µM): 13.6%
viability, T/C (second compound 3.16 µM, first compound 0.0316 µM): 23.8%
viability, T/C (second compound 3.16 µM, first compound 0.1 µM): 20.5%
viability, T/C (second compound 3.16 µM, first compound 0.316 µM): 20.8%
viability, T/C (second compound 3.16 µM, first compound 1 µM): 22.1%
viability, T/C (second compound 3.16 µM, first compound 3.16 µM): 18.5%
viability, T/C (second compound 3.16 µM, first compound 10 µM): 14%
viability, T/C (second compound 10 µM, first compound 0.0316 µM): 15.1%
viability, T/C (second compound 10 µM, first compound 0.1 µM): 11.2%
viability, T/C (second compound 10 µM, first compound 0.316 µM): 11.6%
viability, T/C (second compound 10 µM, first compound 1 µM): 11.9%
viability, T/C (second compound 10 µM, first compound 3.16 µM): 13.6%
viability, T/C (second compound 10 µM, first compound 10 µM): 12.3%
